Experimental findings from PMC9264115, “Pd-catalyzed C–C and C–N cross-coupling reactions in 2-aminothieno[3,2-d]pyrimidin-4(3H)-one series for antiplasmodial pharmacomodulation” (RSC Advances, 2022) are described below.

Series [1] is described as follows: Cytotoxic evaluation, MTT assay. The series is classed as cell-based. Particulars: HepG2 cells, human HepG2 cell line, three independent experiments. The procedure:
The HepG2 cell line was maintained at 37 °C, 5% CO2, at 90% humidity in […] supplemented with 10% fetal bovine serum, 1% L-glutamine (200 mM), and penicillin (100 U per mL)/streptomycin (100 μg mL^−1) (complete RPMI medium). The cytotoxicity of the tested molecules on the HepG2 (hepatocarcinoma cell line purchased from ATCC, ref HB-8065) cell line was assessed according to the method of Mosmann[20] with slight modifications. Briefly, 5 × 10^3 cells in 100 μL of complete medium were inoculated into each well of 96-well plates and incubated at 37 °C in humidified 5% CO2. After 24 h incubation, 100 μL of medium with various product concentrations dissolved in DMSO (final concentration less than 0.5% v/v) were added and the plates were incubated for 72 h at 37 °C. Triplicate assays were performed for each sample. Each plate was then microscopically examined for possible precipitate formation before the medium was aspirated from the wells. Next, 100 μL of MTT (3-(4,5-dimethyl-2-thiazolyl)-2,5-diphenyl-2H-tetrazolium bromide) solution (0.5 mg mL^−1 in medium without FBS) was added to each well. Cells were incubated for 2 h at 37 °C. After this time, the MTT solution was removed and DMSO (100 μL) was added to dissolve the resulting blue formazan crystals. Plates were shaken vigorously (700 rpm) for 10 min. The absorbance was measured at 570 nm with 630 nm as a reference wavelength using a BIO-TEK ELx808 Absorbance Microplate Reader (LabX, Midland, ON, Canada). DMSO was used as a blank and doxorubicin (purchased from Sigma Aldrich) as a positive control. Cell viability was calculated as a percentage of control (cells incubated without the compound). […] CC50 values to represent the mean value calculated from three independent experiments.

The test system of series [2] is K1 culture-adapted P. falciparum strain. As to the kind of experiment: Antiplasmodial evaluation, SYBR Green I fluorescence-based drug susceptibility test. The series is classed as cell-based. Particulars: for EC50: Plasmodium falciparum, multi-resistant K1 strain of P. falciparum, 72 h incubation, three independent experiments, read-out: EC50 PfK1; for SI (selectivity index): from CC50 HepG2 and EC50 PfK1. As to the method:
[…]. Parasitemia was maintained daily between 1 and 3%. The P. falciparum drug susceptibility test was carried out by comparing quantities of DNA in treated and control cultures of parasite in human erythrocytes according to a SYBR Green I fluorescence-based method[19] using a 96-well fluorescence plate reader. Compounds previously dissolved in DMSO (final concentration less than 0.5% v/v) were incubated in a total assay volume of 200 μL (RPMI, 2% hematocrit and 0.4% parasitemia) for 72 h in a humidified atmosphere (10% O2 and 5% CO2) at 37 °C in 96-well flat bottom plates. Duplicate assays were performed for each sample. After incubation, plates were frozen at […] for 24 h. Then, the frozen plates were thawed for 1 h at 37 °C. Fifteen μL of each sample were transferred to 96-well flat bottom non-sterile black plates (Greiner Bio-one, Kremsmünster, Austria), already containing 15 μL of the SYBR Green I lysis buffer (2X SYBR Green I, 20 mM Tris base pH 7.5, 20 mM EDTA, 0.008% w/v saponin, 0.08% w/v Triton X-100). […] Plates were incubated for 15 min at 37 °C and then read on a TECAN Infinite F-200 spectrophotometer with excitation and emission wavelengths at 485 and 535 nm, respectively.

Molecule `CC(C)(C)Nc1nc2cc(Br)sc2c(=O)[nH]1` [Compound 1, 6-Bromo-2-(tert-butylamino)thieno[3,2-d]pyrimidin-4(3H)-one] showed a CC50 at 72 h in series [1] of 38.2 ± 3.5 µM. Further, in series [2], the EC50 came to 43.2 ± 2.6 µM and the “SI (selectivity index)” value was 0.9.
`Cc1ccc(Nc2cc3nc(NC(C)(C)C)[nH]c(=O)c3s2)cc1` [Compound 1a, 2-tert-Butylamino-6-[(4-methylphenyl)amino]thieno[3,2-d]pyrimidin-4(3H)-one]: in series [1], the CC50 at 72 h was determined as 21.7 ± 2.1 µM. Further, in series [2], the EC50 was 10.3 ± 0.2 µM.
`Cc1cccc(Nc2cc3nc(NC(C)(C)C)[nH]c(=O)c3s2)c1` [Compound 1b, 2-tert-Butylamino-6-[(3-methylphenyl)amino]thieno[3,2-d]pyrimidin-4(3H)-one] came in with a CC50 at 72 h in series [1] of 5.3 ± 0.4 µM. In addition, the EC50 in series [2] is 1.1 ± 0.3 µM.
`Cc1ccccc1Nc1cc2nc(NC(C)(C)C)[nH]c(=O)c2s1` [Compound 1c, 2-tert-Butylamino-6-[(2-methylphenyl)amino]thieno[3,2-d]pyrimidin-4(3H)-one]: the midpoint of cytotoxicity in series [1], the CC50 at 72 h, lay at 14.1 ± 0.3 µM. Further, the EC50 in series [2] is 4.3 ± 0.2 µM.
Take `COc1ccc(Nc2cc3nc(NC(C)(C)C)[nH]c(=O)c3s2)cc1` [Compound 1d, 2-tert-Butylamino-6-[(4-methoxyphenyl)amino]thieno[3,2-d]pyrimidin-4(3H)-one]: the melting point lay in the range of 205 to 207 °C. Also, it took 24 ± 3.1 µM to reach half-maximal cytotoxicity in series [1] (CC50 at 72 h). In series [2], the EC50 worked out at 7.2 ± 2 µM and the “SI (selectivity index)” value was found to be 3.3.
Turning to `CC(C)(C)Nc1nc2cc(C#CCCO)sc2c(=O)[nH]1` [Compound 2d, 2-tert-Butylamino-6-(4-hydroxybut-1-yn-1-yl)thieno[3,2-d]pyrimidin-4(3H)-one], the CC50 at 72 h in series [1] is more than 50 µM. The EC50 in series [2] is more than 10 µM.
`C#Cc1cc2nc(NC(C)(C)C)[nH]c(=O)c2s1` [Compound 2f, 2-tert-Butylamino-6-ethynylthieno[3,2-d]pyrimidin-4(3H)-one] gave a CC50 at 72 h in series [1] of 4.7 ± 1 µM. For the same molecule, the EC50 in series [2] was more than 12.5 µM.
For the molecule `CN1CCN(CC#Cc2cc3nc(NC(C)(C)C)[nH]c(=O)c3s2)CC1` [Compound 2g, 2-tert-Butylamino-6-[3-(4-methylpiperazin-1-yl)prop-1-yn-1-yl]thieno[3,2-d]pyrimidin-4(3H)-one], the CC50 at 72 h in series [1] came to 41.6 ± 5.2 µM. Further, in series [2], the EC50 was more than 5 µM.
As for `CC(C)(C)Nc1nc2cc(-c3ccc([N+](=O)[O-])cc3)sc2c(=O)[nH]1` [Compound 4b, 2-tert-Butylamino-6-(4-nitrophenyl)thieno[3,2-d]pyrimidin-4(3H)-one], the melting point is more than 300 °C.
In the case of `CC(C)(C)Nc1nc2cc(-c3ccc(O)cc3)sc2c(=O)[nH]1` [Compound 4d, 2-(tert-butylamino)-6-(4-hydroxyphenyl)thieno[3,2-d]pyrimidin-4(3H)-one], in series [1], the CC50 at 72 h worked out at 12.2 ± 0.3 µM. Moreover, in series [2], the EC50 was 7.5 ± 1 µM.
In the same order, the values of `CN1CCN(c2ccc(-c3cc4nc(NC(C)(C)C)[nH]c(=O)c4s3)cc2)CC1` [Compound 4h, 2-tert-Butylamino-6-[4-(4-methylpiperazin-1-yl)phenyl]thieno[3,2-d]pyrimidin-4(3H)-one] are 5.8 ± 0.5 µM and 4.1 ± 0.7 µM.
On the same counts, the results for `CC(C)(C)Nc1nc2cc(-c3ccc(N4CCCCC4)cc3)sc2c(=O)[nH]1` [Compound 4i, 2-tert-Butylamino-6-[4-(piperidin-1-yl)phenyl]thieno[3,2-d]pyrimidin-4(3H)-one] are more than 6.25 µM and 4.1 ± 1.2 µM.
On the same counts, the results for `CC(C)(C)Nc1nc2cc(-c3ccc(S(C)(=O)=O)cc3)sc2c(=O)[nH]1` [Compound 4k, 2-tert-Butylamino-6-[4-(methylsulfonyl)phenyl]thieno[3,2-d]pyrimidin-4(3H)-one] are more than 25 µM and 3 ± 0.6 µM.
`CC(C)Nc1nc2cc(-c3ccc(N)cc3)sc2c(=O)[nH]1` [Compound 4q, 6-(4-aminophenyl)-2-(propan-2-ylamino)thieno[3,2-d]pyrimidin-4(3H)-one]: the midpoint of cytotoxicity in series [1], the CC50 at 72 h, lay at 11.3 ± 3.5 µM. Also, in series [2], the EC50 came to 6 ± 1.1 µM.
